Results reported in patent US10815230B2, “Casein kinase 1 delta inhibitor” (ELECTROPHORETICS LIMITED, priority 2015, dated 2020).
Values belong to the compound of their own block, whether it stands above or below them.

Experiments:
Format in all cases: biochemical
JNK2 = JNK2 (Homo sapiens, UniProt P45984); test: Kinase selectivity, % remaining activity; conditions: 10 μM compound, 10 μM ATP, duplicate
Method: (§1) A two-tier strategy to determine the selectivity of compound A was applied: first, the compound was tested at a single concentration (in duplicate) to determine the %-remaining activity of the target kinase. Subsequently, the IC50 of compound A and comparative compounds for casein kinase 1 delta were determined.
(§2) Compounds were tested in single dose duplicate mode at a concentration of 10 μM (in DMSO) and reactions were carried out at 10 μM ATP, Table 3 reports the % of remaining activity (relative to DMSO).

ROCK1 = ROCK1 (Homo sapiens, UniProt Q13464); test: Kinase selectivity, % remaining activity; conditions: 10 μM compound, 10 μM ATP, duplicate
ROCK1, sequence (Q13464 whole entry): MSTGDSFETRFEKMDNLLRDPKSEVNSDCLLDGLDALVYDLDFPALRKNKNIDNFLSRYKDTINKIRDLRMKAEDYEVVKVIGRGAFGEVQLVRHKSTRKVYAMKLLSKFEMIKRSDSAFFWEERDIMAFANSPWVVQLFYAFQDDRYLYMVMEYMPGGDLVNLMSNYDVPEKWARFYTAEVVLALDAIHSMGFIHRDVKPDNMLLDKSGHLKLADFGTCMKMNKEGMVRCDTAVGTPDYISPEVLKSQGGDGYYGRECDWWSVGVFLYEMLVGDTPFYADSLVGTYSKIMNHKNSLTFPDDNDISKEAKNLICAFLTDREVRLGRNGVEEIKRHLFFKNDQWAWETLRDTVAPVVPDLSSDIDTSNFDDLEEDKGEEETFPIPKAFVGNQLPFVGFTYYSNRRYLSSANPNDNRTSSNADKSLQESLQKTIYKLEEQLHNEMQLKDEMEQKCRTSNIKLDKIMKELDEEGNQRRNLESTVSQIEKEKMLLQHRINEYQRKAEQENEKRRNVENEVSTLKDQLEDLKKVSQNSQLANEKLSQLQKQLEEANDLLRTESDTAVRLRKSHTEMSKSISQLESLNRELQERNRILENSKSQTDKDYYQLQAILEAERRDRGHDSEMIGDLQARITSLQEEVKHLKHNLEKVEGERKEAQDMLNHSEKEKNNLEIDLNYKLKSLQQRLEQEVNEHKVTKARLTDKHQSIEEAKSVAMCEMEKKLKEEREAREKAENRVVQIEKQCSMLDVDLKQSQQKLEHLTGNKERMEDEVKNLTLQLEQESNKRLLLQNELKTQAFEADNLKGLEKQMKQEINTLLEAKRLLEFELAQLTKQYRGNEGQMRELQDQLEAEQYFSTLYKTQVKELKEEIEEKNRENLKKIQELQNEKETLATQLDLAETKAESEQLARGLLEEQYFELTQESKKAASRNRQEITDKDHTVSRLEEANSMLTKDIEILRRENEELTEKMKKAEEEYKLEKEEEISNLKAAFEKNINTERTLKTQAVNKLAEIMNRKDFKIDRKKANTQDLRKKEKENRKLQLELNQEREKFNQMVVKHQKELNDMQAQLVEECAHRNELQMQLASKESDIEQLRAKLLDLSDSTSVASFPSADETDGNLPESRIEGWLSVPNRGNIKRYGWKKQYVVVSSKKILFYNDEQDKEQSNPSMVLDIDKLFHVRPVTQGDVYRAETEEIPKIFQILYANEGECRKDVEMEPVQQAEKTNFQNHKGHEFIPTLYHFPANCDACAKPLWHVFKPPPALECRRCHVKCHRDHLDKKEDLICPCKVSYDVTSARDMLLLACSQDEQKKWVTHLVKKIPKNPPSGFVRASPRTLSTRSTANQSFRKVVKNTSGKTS
Method: as §1, §2

CK1e = CK1e (Homo sapiens, UniProt P49674); test: Kinase selectivity, % remaining activity; conditions: 10 μM compound, 10 μM ATP, duplicate
Method: as §1, §2

ALK5/TGFBR1 = biological target: T1, ALK5/TGFBR1 (Homo sapiens, UniProt P36897); test: Kinase selectivity, % remaining activity; conditions: 10 μM compound, 10 μM ATP, duplicate
T1 sequence (P36897 34-503): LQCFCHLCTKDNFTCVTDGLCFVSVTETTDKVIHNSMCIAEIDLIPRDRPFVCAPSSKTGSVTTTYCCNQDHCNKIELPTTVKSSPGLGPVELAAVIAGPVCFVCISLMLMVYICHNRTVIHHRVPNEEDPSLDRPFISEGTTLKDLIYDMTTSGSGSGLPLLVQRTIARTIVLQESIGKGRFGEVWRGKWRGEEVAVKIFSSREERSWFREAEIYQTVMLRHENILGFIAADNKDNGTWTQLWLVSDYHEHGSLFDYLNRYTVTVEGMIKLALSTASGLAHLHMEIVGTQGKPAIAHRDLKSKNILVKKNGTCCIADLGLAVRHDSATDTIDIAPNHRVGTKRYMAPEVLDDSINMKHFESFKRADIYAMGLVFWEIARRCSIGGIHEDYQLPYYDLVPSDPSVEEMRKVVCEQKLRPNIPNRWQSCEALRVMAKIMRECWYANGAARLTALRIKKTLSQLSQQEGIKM
Method: as §1, §2

PIM3 = PIM3 (Homo sapiens, UniProt Q86V86); test: Kinase selectivity, % remaining activity; conditions: 10 μM compound, 10 μM ATP, duplicate
Method: as §1, §2

CK1g1 = CK1g1 (Homo sapiens, UniProt Q9HCP0); test: Kinase selectivity, % remaining activity; conditions: 10 μM compound, 10 μM ATP, duplicate
CK1g1, sequence (Q9HCP0 whole entry): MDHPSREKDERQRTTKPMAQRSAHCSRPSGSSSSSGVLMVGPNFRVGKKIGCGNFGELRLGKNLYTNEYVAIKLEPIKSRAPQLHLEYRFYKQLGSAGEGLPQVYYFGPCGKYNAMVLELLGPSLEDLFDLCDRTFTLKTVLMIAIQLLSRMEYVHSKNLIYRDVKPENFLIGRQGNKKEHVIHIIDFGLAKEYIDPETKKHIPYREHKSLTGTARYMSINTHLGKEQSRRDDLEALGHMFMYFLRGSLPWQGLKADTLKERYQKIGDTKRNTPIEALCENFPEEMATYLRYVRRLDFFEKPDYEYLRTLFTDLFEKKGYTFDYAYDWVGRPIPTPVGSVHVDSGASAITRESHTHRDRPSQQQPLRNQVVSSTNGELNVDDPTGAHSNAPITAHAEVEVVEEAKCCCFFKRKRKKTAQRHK
Method: as §1, §2

MSK1/RPS6KA5 = MSK1/RPS6KA5 (Homo sapiens, UniProt O75582); test: Kinase selectivity, % remaining activity; conditions: 10 μM compound, 10 μM ATP, duplicate
Method: as §1, §2

CK1g3 = CK1g3 (Homo sapiens, UniProt Q9Y6M4); test: Kinase selectivity, % remaining activity; conditions: 10 μM compound, 10 μM ATP, duplicate
Method: as §1, §2

CLK2 = CLK2 (Homo sapiens, UniProt P49760); test: Kinase selectivity, % remaining activity; conditions: 10 μM compound, 10 μM ATP, duplicate
Method: as §1, §2

CK1g2 = CK1g2 (Homo sapiens, UniProt P78368); test: Kinase selectivity, % remaining activity; conditions: 10 μM compound, 10 μM ATP, duplicate
Method: as §1, §2

PKCb2 = PKCb2 (Homo sapiens, UniProt P05771); test: Kinase selectivity, % remaining activity; conditions: 10 μM compound, 10 μM ATP, duplicate
Method: as §1, §2

EPHA2 = EPHA2 (Homo sapiens, UniProt P29317); test: Kinase selectivity, % remaining activity; conditions: 10 μM compound, 10 μM ATP, duplicate
Method: as §1, §2

FGFR1 = FGFR1 (Homo sapiens, UniProt P11362); test: Kinase selectivity, % remaining activity; conditions: 10 μM compound, 10 μM ATP, duplicate
Method: as §1, §2

GSK3B = GSK3B (Homo sapiens, UniProt P49841); test: Kinase selectivity, % remaining activity; conditions: 10 μM compound, 10 μM ATP, duplicate
GSK3B, sequence (P49841 whole entry): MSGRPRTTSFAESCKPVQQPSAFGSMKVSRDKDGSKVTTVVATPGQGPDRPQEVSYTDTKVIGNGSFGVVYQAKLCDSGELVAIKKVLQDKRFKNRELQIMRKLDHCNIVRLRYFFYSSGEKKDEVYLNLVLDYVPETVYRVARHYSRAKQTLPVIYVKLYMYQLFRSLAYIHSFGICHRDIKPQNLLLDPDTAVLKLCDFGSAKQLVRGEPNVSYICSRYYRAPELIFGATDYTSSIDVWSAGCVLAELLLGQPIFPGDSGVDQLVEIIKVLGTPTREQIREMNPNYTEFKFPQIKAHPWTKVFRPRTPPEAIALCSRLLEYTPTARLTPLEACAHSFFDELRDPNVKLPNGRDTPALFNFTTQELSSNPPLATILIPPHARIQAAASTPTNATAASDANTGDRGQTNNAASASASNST
Method: as §1, §2

KDR/VEGFR2 = KDR/VEGFR2 (Homo sapiens, UniProt P35968); test: Kinase selectivity, % remaining activity; conditions: 10 μM compound, 10 μM ATP, duplicate
KDR/VEGFR2, sequence (P35968 20-1356): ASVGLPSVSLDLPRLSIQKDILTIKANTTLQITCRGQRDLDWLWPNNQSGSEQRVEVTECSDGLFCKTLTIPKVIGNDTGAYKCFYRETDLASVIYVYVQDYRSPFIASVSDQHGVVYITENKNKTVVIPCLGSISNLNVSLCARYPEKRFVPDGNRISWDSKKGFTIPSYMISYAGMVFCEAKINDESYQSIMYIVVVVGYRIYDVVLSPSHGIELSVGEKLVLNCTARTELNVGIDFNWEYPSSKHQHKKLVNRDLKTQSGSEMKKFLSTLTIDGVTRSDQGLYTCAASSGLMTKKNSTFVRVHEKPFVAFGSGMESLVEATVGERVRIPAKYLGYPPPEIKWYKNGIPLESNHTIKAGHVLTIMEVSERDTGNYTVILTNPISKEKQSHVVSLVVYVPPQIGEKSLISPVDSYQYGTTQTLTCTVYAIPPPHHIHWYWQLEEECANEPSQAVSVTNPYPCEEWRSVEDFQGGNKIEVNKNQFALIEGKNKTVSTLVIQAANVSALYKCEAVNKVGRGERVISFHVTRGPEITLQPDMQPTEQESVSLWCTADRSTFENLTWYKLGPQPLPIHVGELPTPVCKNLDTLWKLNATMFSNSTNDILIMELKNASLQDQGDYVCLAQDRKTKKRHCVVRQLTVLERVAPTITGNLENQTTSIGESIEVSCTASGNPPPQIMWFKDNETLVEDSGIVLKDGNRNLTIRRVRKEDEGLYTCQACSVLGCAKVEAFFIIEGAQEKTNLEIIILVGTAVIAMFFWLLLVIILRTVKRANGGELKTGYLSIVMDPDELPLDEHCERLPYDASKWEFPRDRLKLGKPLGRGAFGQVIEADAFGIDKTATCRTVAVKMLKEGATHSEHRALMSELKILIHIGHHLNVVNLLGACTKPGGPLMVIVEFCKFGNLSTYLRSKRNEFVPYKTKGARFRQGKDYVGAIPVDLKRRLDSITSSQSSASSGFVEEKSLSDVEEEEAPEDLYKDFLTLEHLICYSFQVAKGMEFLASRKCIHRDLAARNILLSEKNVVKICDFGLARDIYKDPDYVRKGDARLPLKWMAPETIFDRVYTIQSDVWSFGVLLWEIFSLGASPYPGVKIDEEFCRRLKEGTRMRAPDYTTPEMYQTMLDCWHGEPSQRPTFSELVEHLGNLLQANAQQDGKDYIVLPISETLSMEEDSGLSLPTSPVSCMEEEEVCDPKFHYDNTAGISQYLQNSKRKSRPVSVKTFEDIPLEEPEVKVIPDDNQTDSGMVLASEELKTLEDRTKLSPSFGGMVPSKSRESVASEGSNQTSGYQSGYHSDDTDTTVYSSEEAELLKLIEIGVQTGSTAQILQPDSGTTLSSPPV
Method: as §1, §2

TNIK = TNIK (Homo sapiens, UniProt Q9UKE5); test: Kinase selectivity, % remaining activity; conditions: 10 μM compound, 10 μM ATP, duplicate
Method: as §1, §2

LCK = LCK (Homo sapiens, UniProt P06239); test: Kinase selectivity, % remaining activity; conditions: 10 μM compound, 10 μM ATP, duplicate
LCK, sequence (P06239 whole entry): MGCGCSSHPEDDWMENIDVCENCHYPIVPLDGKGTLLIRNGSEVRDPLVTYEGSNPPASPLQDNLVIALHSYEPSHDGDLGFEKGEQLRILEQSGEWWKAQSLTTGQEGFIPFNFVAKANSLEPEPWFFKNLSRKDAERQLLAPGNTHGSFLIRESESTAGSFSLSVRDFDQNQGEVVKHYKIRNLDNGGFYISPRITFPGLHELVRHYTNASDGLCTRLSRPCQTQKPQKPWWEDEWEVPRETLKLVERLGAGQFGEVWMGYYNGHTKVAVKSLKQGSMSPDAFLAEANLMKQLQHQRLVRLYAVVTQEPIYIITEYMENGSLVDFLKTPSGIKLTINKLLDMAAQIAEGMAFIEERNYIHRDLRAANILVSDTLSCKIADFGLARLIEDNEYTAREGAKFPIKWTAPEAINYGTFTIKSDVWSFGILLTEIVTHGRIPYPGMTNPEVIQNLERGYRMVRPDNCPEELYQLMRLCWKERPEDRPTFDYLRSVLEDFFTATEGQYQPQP
Method: as §1, §2

PDK1/PDPK1 = biological target: T2, PDK1/PDPK1 (Homo sapiens, UniProt O15530); test: Kinase selectivity, % remaining activity; conditions: 10 μM compound, 10 μM ATP, duplicate
T2 sequence (O15530 1-556): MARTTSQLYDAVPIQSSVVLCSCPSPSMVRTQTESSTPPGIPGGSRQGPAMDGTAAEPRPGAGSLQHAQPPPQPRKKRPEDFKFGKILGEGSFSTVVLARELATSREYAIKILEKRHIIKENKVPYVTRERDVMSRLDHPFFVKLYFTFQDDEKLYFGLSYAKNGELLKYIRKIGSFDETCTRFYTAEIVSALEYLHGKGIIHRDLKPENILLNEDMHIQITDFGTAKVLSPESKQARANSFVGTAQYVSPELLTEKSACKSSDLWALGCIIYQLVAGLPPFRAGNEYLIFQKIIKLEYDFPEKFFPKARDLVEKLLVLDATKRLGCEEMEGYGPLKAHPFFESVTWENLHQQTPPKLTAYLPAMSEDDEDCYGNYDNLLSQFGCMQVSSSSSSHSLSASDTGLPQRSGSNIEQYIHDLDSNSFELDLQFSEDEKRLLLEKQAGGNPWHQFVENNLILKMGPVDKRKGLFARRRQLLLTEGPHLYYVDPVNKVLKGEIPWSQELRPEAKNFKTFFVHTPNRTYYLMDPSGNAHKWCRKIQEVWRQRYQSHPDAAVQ
Method: as §1, §2

CDK5/p25 = CDK5/p25 (Homo sapiens, UniProt Q00535); test: Kinase selectivity, % remaining activity; conditions: 10 μM compound, 10 μM ATP, duplicate
Method: as §1, §2

EGFR = EGFR (Homo sapiens, UniProt P00533); test: Kinase selectivity, % remaining activity; conditions: 10 μM compound, 10 μM ATP, duplicate
Method: as §1, §2

PKA = PKA (Homo sapiens, UniProt P17612); test: Kinase selectivity, % remaining activity; conditions: 10 μM compound, 10 μM ATP, duplicate
Method: as §1, §2

ABL2/ARG = ABL2/ARG (Homo sapiens, UniProt P42684); test: Kinase selectivity, % remaining activity; conditions: 10 μM compound, 10 μM ATP, duplicate
Method: as §1, §2

YES/YES1 = YES/YES1 (Homo sapiens, UniProt P07947); test: Kinase selectivity, % remaining activity; conditions: 10 μM compound, 10 μM ATP, duplicate
Method: as §1, §2

P38a/MAPK14 = P38a/MAPK14 (Homo sapiens, UniProt Q16539); test: Kinase selectivity, % remaining activity; conditions: 10 μM compound, 10 μM ATP, duplicate
Method: as §1, §2

RIPK2 = RIPK2 (Homo sapiens, UniProt O43353); test: Kinase selectivity, % remaining activity; conditions: 10 μM compound, 10 μM ATP, duplicate
RIPK2, sequence (O43353 whole entry): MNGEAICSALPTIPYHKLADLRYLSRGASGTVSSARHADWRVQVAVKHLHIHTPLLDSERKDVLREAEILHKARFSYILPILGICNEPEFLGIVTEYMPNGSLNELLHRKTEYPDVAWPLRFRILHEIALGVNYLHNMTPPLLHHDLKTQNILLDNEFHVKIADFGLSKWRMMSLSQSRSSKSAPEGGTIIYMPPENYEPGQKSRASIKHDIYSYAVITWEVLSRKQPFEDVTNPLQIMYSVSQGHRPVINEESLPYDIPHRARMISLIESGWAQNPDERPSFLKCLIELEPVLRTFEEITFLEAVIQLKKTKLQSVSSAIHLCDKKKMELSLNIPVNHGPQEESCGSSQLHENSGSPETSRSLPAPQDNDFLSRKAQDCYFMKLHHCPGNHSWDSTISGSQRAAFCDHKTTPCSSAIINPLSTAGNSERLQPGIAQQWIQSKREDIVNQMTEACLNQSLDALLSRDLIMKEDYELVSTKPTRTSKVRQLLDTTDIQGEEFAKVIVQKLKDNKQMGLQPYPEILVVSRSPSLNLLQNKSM
Method: as §1, §2

[1] = biological target: CK1d (casein kinase 1 delta) (Homo sapiens, UniProt P48730); test: Kinase selectivity, % remaining activity and IC50; conditions: 10 μM ATP; for IC50: casein kinase 1 delta, 10-dose, 3 fold serial dilution
CK1d (casein kinase 1 delta), sequence (P48730 whole entry): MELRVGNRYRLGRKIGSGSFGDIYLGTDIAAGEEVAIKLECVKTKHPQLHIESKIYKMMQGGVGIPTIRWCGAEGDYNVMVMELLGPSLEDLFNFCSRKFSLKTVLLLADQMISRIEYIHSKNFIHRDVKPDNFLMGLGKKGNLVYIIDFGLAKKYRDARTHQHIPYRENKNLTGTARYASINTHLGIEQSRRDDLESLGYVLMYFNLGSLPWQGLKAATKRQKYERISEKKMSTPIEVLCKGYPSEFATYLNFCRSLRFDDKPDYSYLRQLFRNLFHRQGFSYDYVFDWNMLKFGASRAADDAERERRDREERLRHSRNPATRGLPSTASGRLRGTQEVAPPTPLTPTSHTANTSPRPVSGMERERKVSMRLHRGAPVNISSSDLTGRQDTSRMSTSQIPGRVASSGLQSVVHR
Method: as §1, §2
Control compound GW5074 (Tocris®) was tested starting at 20 μM. Reactions were carried out at 10 μM ATP.

CK1a1 = CK1a1 (Homo sapiens, UniProt P48729); test: Kinase selectivity, % remaining activity; conditions: CK1a1, 10 μM compound, 10 μM ATP, duplicate
Method: as §2

[2] = read-out: % of remaining activity (relative to DMSO)

% of remaining activity (relative to DMSO) (JNK2; listed as Cmp 987): 63.80% | remaining activity at 10 µM (JNK2; [2]): 60% | % of remaining activity (relative to DMSO) (ROCK1; listed as Cmp 987): 92.49% | remaining activity at 10 µM (ROCK1; [2]): 96.9% | % of remaining activity (relative to DMSO) (CK1e; listed as Cmp 987): 18.19% | remaining activity at 10 µM (CK1e; [2]): 20.1% | % of remaining activity (relative to DMSO) (ALK5/TGFBR1; listed as Cmp 987): 37.80% | remaining activity at 10 µM (ALK5/TGFBR1; [2]): 39.8% | % of remaining activity (relative to DMSO) (PIM3; listed as Cmp 987): 75.10% | remaining activity at 10 µM (PIM3; [2]): 88.8% | % of remaining activity (relative to DMSO) (CK1g1; listed as Cmp 987): 99.58% | remaining activity at 10 µM (CK1g1; [2]): 104% | % of remaining activity (relative to DMSO) (MSK1/RPS6KA5; listed as Cmp 987): 87.76% | remaining activity at 10 µM (MSK1/RPS6KA5; [2]): 91.4% | % of remaining activity (relative to DMSO) (CK1g3; listed as Cmp 987): 97.42% | remaining activity at 10 µM (CK1g3; [2]): 101% | % of remaining activity (relative to DMSO) (CLK2; listed as Cmp 987): 72.17% | remaining activity at 10 µM (CLK2; [2]): 72.7% | % of remaining activity (relative to DMSO) (CK1g2; listed as Cmp 987): 78.23% | remaining activity at 10 µM (CK1g2; [2]): 77.7% | % of remaining activity (relative to DMSO) (PKCb2; listed as Cmp 987): 66.13% | remaining activity at 10 µM (PKCb2; [2]): 73% | % of remaining activity (relative to DMSO) (EPHA2; listed as Cmp 987): 50.05% | remaining activity at 10 µM (EPHA2; [2]): 49.4% | % of remaining activity (relative to DMSO) (FGFR1; listed as Cmp 987): 86.54% | remaining activity at 10 µM (FGFR1; [2]): 78.7% | % of remaining activity (relative to DMSO) (GSK3B; listed as Cmp 987): 68.98% | remaining activity at 10 µM (GSK3B; [2]): 70% | % of remaining activity (relative to DMSO) (KDR/VEGFR2; listed as Cmp 987): 83.06% | remaining activity at 10 µM (KDR/VEGFR2; [2]): 90.3% | % of remaining activity (relative to DMSO) (TNIK; listed as Cmp 987): 69.49% | remaining activity at 10 µM (TNIK; [2]): 68.5% | % of remaining activity (relative to DMSO) (LCK; listed as Cmp 987): 58.89% | remaining activity at 10 µM (LCK; [2]): 63.9% | % of remaining activity (relative to DMSO) (PDK1/PDPK1; listed as Cmp 987): 98.31% | remaining activity at 10 µM (PDK1/PDPK1; [2]): 95% | % of remaining activity (relative to DMSO) (CDK5/p25; listed as Cmp 987): 91.79% | remaining activity at 10 µM (CDK5/p25; [2]): 98.2% | % of remaining activity (relative to DMSO) (EGFR; listed as Cmp 987): 34.51% | remaining activity at 10 µM (EGFR; [2]): 32% | % of remaining activity (relative to DMSO) (PKA; listed as Cmp 987): 33.43% | remaining activity at 10 µM (PKA; [2]): 36.9% | % of remaining activity (relative to DMSO) (ABL2/ARG; listed as Cmp 987): 83.33% | remaining activity at 10 µM (ABL2/ARG; [2]): 88.1% | % of remaining activity (relative to DMSO) (YES/YES1; listed as Cmp 987): 40.00% | remaining activity at 10 µM (YES/YES1; [2]): 42.8% | % of remaining activity (relative to DMSO) (P38a/MAPK14; listed as Cmp 987): 17.83^$ % | remaining activity at 10 µM (P38a/MAPK14; [2]): 17.6% | % of remaining activity (relative to DMSO) (RIPK2; listed as Cmp 987): 40.46% | remaining activity at 10 µM (RIPK2; [2]): 36.3% | % of remaining activity (relative to DMSO) ([1]; CK1d, 10 μM compound, duplicate, listed as Cmp 987): 5.40% | remaining activity at 10 µM ([1]; CK1d, 10 μM compound, duplicate, read-out: % of remaining activity (relative to DMSO)): 5.71% | IC50 [1]: 0.31 µM | % of remaining activity (relative to DMSO) (CK1a1; listed as Cmp 987): 17.57% | remaining activity at 10 µM (CK1a1; [2]): 20.3%
Structure (SMILES): NC(=O)c1c(N)c(C(=O)c2ccc(F)cc2)n2ccccc12 [Comparative Compound 987, 2-amino-3-[(4-fluorophenyl)carbonyl]indolizine-1-carboxamide]

IC50 [1]: 0.113 µM
Structure (SMILES): O=C1Nc2ccc(I)cc2/C1=C/c1cc(Br)c(O)c(Br)c1 [GW5074]
